This is an account of results in US20180250224A1, “Ophthalmic Drug Compositions” (Oxular Limited, priority 2014, published 2018).

The nature of this data set: Drug elution in PBS over 0-7 days (HPLC of supernatant). It is filed as physicochemical. The conditions noted are these: 1.2 ml PBS, 37 degrees centigrade, 250 rpm. The protocol: The microspheres of Example 7 and the elongated solid composition of Example 8 were tested for drug release. Samples of the Everolimus containing microspheres, averaging 4.0 mg, were placed in Eppendorf tubes with 1.2 ml of phosphate buffered saline (PBS) and suspended with agitation. Samples of the elongated solid composition containing Everolimus of 12 mm length, averaging 0.51 mg were placed in Eppendorf tubes with 1.2 ml of phosphate buffered saline (PBS) and suspended with agitation. For comparison, samples of the drug used to produce the microspheres, averaging 4.1 mg, were also placed in Eppendorf tubes with 1.2 ml of PBS and suspended with agitation. The tubes were incubated at 37 degrees centigrade with mixing at 250 rpm. At time intervals of 0, 1, 2, 4 and 7 days a tube containing sample was centrifuged and the supernatant removed for drug analysis. For each time point, 10 microliters of supernatant was placed into 75:25 acetonitrile and water solvent to solubilize the drug and the resultant drug content was analyzed by HPLC. The HPLC method used a C18 reverse phase column and UV detection and was calibrated to a standard curve of drug. […] In contrast, the Everolimus containing microspheres released drug at a slower rate, with 0.06% of the drug released at 7 days. Similar to the microspheres, the elongated solid composition containing Everolimus released drug at a slow rate, with 0.04% of the drug released at 7 days.
The microspheres of Example 11 and the elongated solid composition of Example 12 were tested for drug release. […] For each time point, 10 microliters of supernatant was placed into 75:25 acetonitrile and water solvent to solubilize the drug and the resultant drug content was analyzed by HPLC. […]
The elongated solid composition of Example 15 was tested for drug release. […] For each time point, 10 microliters of supernatant was placed into 50:50 acetonitrile and methanol solvent to solubilize the drug and the resultant drug content was analyzed by HPLC. […]

For `CO[C@H]1C[C@@H]2CC[C@@H](C)[C@@](O)(O2)C(=O)C(=O)N2CCCC[C@H]2C(=O)O[C@H]([C@H](C)C[C@@H]2CC[C@@H](OCCO)[C@H](OC)C2)CC(=O)[C@H](C)/C=C(\C)[C@@H](O)[C@@H](OC)C(=O)[C@H](C)C[C@H](C)/C=C/C=C/C=C/1C` [Everolimus], the “drug released at 7 days” value (7 days) was found to be 0.45%. Consider `CC1(C)O[C@@H]2C[C@H]3[C@@H]4C[C@H](F)C5=CC(=O)C=C[C@]5(C)[C@@]4(F)[C@@H](O)C[C@]3(C)[C@]2(C(=O)CO)O1` [fluocinolone, fluocinolone acetonide], for which the “drug released initially at 0 days (initial burst release)” value (0 days) is on record as 5.3%. Further, the “drug released, average at subsequent time points” value (1, 2, 4 and 7 days) is 0.9%.
